The record followed here is US10723716B2, “Alpha-helix mimetics as modulators of Abeta self-assembly” (New York University, priority 2016, dated 2020).

The subject of data set [1] is Aβ42 mediated toxicity in mouse neuroblastoma (N2a) cells. The data set is described as follows: Aβ42 mediated toxicity in Neuro-2a cells (MTS cell viability). Type of data set: cell-based. As to conditions: for cell viability: 5 μM Aβ42, equimolar ratio, 72 h; for effect on Aβ42 mediated cytotoxicity: equimolar ratio, Neuro-2a cells. How it is done: Cell viability was determined using a CellTiter 96® AQueous One Solution Cell Proliferation Assay (MTS) kit (Promega), which measures the reduction of the tetrazolium compound MTS (3-(4,5-dimethylthiazol-2-yl)-5-(3-carboxymethoxyphenyl)-2-(4-sulfophenyl)-2H-tetrazolium, inner salt) to soluble formazan by mitochondrial dehydrogenase enzyme in living cells. Formazan can be measured at 490 nm according to the manufacturer's instructions.
Neuro-2a cells (ATCC® […]) were maintained in serum-containing media [Dulbecco's Modified Eagle's Medium—high glucose (DMEM, Sigma) supplemented with 10% foetal bovine serum (FBS), 4 mM L-Glutamine (Sigma), and 1% penicillin/streptomycin (Sigma)] in 5% CO2 at 37° C. Once the cells reached ˜95% confluence, they were split (using 0.25% trypsin-EDTA, Sigma, St. Louis, USA), seeded at a density of 5×10^3 cells/well in 100 μL complete medium in 96-well plates and cultured for 48 h. Thereafter, the media was removed, the cells washed with phosphate buffered saline (PBS), and 90 μL of serum-free DMEM was added to the wells. A solution (A) containing 50 μM Aβ42 in NaOH (pH 10.5) was prepared and kept on ice, and a solution (B) containing 50 μM of the oligopyridylamide compound, H2O (2.33 μL/well) and 1× and 10×PBS was prepared and kept at room temperature. The solutions were combined, vortexed and 10 μL of this solution immeadiatly added to each well. The final concentrations in the wells were: 5 μM Aβ42, 5 μM oligopyridylamide, 200 μM NaOH, 0.1×PBS and 0.5% (v/v) DMSO.
To investigate the toxic effect of the peptide alone on cell viability, solution (B) without the oligopyridylamide compound was mixed with solution (A), while the effect of the oligopyridylamide compound alone was determined by adding solution (A) without peptide to solution (B). The effect of oligopyridylamides on seed-catalyzed Aβ42 aggregation was probed by preparing an additional solution (C) containing 0.5 μM seeds. The volume contributed by solution (C) was taken into account in preparing solution (B). Solution (C) was mixed with solution (B), and the resulting mixture was then added to solution (A) shortly before addition to the wells. To study the effect of oligopyridylamides on the oligomeric states of Aβ42, solution (A) was mixed with solution (B) without inhibitor and incubated at room temperature for 1, 2 or 3 h. Subsequently, 50 μM oligopyridylamides was added to the mixture, which was then immediately added to the cells. After culturing for 72 h in 5% CO2 at 37° C., 20 μL of MTS reagent was added to each well. The MTS reagent was incubated for 2.5 h at 37° C., and absorbance of the soluble formazan product (λ=490 nm) of MTS reduction was measured on a Synergy H1MF Multi-Mode microplate-reader (BioTek, Winooski, Vt., USA), with a reference wavelength of 650 nm to subtract the background. Wells treated with a solution containing serum-free DMEM, 200 μM NaOH, 0.1×PBS and 0.5% (v/v) DMSO served as control. MTS reduction was determined from the ratio of the absorbance of the treated wells to the control wells. Each data point represents an average of four independent quadruplet-well trials.

Data set [2] concerns the target T1, Aβ42 (Homo sapiens, UniProt P05067).
T1 construct: Cleavage of APP results in several Aβ isoforms; The predominant species are Aβ42 and Aβ40; purchased Anaspec (Fremont, Calif., USA)
The data set is described as follows: ELISA with Aβ oligomer-specific antibody (OMAB). As to conditions: for Aβ42 oligomers by ELISA on delayed addition: 2 μM Aβ42, compound added at 3 h and 6 h, equimolar; for ELISA absorbance (soluble Aβ42 oligomers, OMAB): Aβ42 incubated with compound, equimolar ratio, all time points. Type of data set: biochemical. How it is done:
The ELISA was performed according to a previously published method (see Lindhagen-Persson, M.; Brännström, K.; Vestling, M.; Steinitz, M.; Olofsson, A. PLoS ONE 2010, 5, e13928). A Nunc-Immuno MaxiSorp plate (Sigma Aldrich, St. Louis, Mo., USA) was incubated with 2 μg mL^−1 Aβ oligomer-specific antibody (OMAB, Agrisera, Sweden) in PBS buffer overnight at 4° C. (200 μl/well). Wells were blocked with 5% fat-free milk in PBS buffer with 0.1% Tween 20 (PBST) for 1 h at 4° C. and washed with PBST buffer (×3). Wells were then treated with Aβ42 samples overnight at 4° C. […] Samples were diluted by 1:30 in PBS buffer before adding to a 96-well plate. After adding Aβ42 samples, the wells were washed (×3) with PBST buffer followed by the addition of 6E10 antibody (1/1000 dilution in 5% nonfat free milk in PBST buffer) for 1 h at r.t. Wells were washed (×5) with PBST buffer and treated with an anti-mouse HRP-conjugated IgG (1/10,000 dilution in 5% nonfat free milk in PBST buffer). Wells were washed (×5) with PBST buffer and treated with TMB Peroxidase EIA Substrate Kit (Biorad, Hercules, Calif., USA). The plates were developed until the color of the solution turned blue. The reaction was stopped by adding 100 μL of 1N H2SO4 to each well. The color of the solution changed to yellow from blue. The absorbance was recorded at 450 nm on a FlexStation 3 Multi-Mode Microplate reader from Molecular Devices (Sunnyvale, Calif., USA). Each sample was repeated in triplicate.

Data set [3] addresses T1, Aβ42. The data set is described as follows: Dot blot assay with A11 antibody. In kind it is biochemical. As to conditions: Aβ42, equimolar ratio, whole time course. Here is the method: Samples of Aβ42 at concentrations from 2 μM to 5 μM were incubated at various time intervals in the absence and presence of the compounds of the invention at an equimolar ratio (see FIG. 4j). The samples were then applied to a nitrocellulose membrane and dried at room temperature for 1 h or overnight at 4° C. The membranes were then blocked with 5% nonfat milk in Tris buffer (20 mM Tris, pH 7.4) for 1 h at room temperature. The nitrocellulose membranes were then washed (×3) with 20 mM Tris, pH 7.4 supplemented with 0.01% Tween-20 (TBST) and incubated with polyclonal A11 antibody (1/1000 dilution in 5% nonfat milk in TBST, Life Technologies Corp., Grand Island, N.Y., USA) overnight at 4° C. Samples were then washed (×3) with TBST buffer and incubated with horseradish peroxidase (HRP) conjugated anti-rabbit IgG (1/500 dilution in 5% nonfat free milk in TBST) at r.t. for 1 h. The dot blots were then washed with TBST buffer (×3), developed using the ECL reagent kit (Amersham, Piscataway, N.J., USA), and imaged using a Typhoon FLA 9000 instrument (GE Healthcare Life Sciences, Pittsburgh, Pa., USA) using chemiluminescence settings. A similar experiment was repeated using 6E10 antibody ( 1/1000 dilution in 5% nonfat free milk in TBST, Biolegend, San Diego, Calif., USA) for comparison.

Setting [4] is: compound added to 5 μM Aβ42 after 1 h from start of amyloid reaction, Aβ42 alone 46%.
Setting [5] is: compound added to 5 μM Aβ42 after 2 h from start of amyloid reaction, Aβ42 alone 57%.
Where [6] appears, read: compound added to 5 μM Aβ42 after 3 h from start of amyloid reaction, Aβ42 alone 62%.

Structures are written as SMILES. “Also recorded” adds a separate entry of the source.

T1 sequence (P05067 672-713 limits assumed): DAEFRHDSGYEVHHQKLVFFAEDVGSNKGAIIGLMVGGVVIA

Consider `COC(=O)c1ccc(NC(=O)c2ccc(NC(=O)c3ccc(NC(=O)c4ccc([N+](=O)[O-])c(OCC(C)C)n4)c(OCc4ccccc4)n3)c(OCC(=O)O)n2)c(OCC(=O)O)n1` [ADH-31], for which, in data set [1], the cell viability is recorded as 97%±1%. The “cell viability, preformed Aβ42 oligomers” value in data set [1] (setting [4]) turned out to be 90%; in data set [1] (setting [5]) it was 89%; in data set [1] (setting [6]), 95%. In addition, in data set [1], the “effect on Aβ42 mediated cytotoxicity” value is “effective at rescuing cells”. Further, in data set [2], the “Aβ42 oligomers by ELISA on delayed addition” value was “no evidence of oligomers”. In data set [2], the “ELISA absorbance (soluble Aβ42 oligomers, OMAB)” value was “significantly lower”. Also, the “A11 signal intensity of the dots” value in data set [3] is on record as “weak intensities”.

In the case of `COC(=O)c1ccc(NC(=O)c2ccc(NC(=O)c3ccc([N+](=O)[O-])c(OCc4ccccc4)n3)c(OCCCN)n2)c(OCCCN)n1` [ADH-41], in data set [1], the cell viability is 98±2% and the “effect on Aβ42 mediated cytotoxicity” value is reported as “completely inhibited; also recorded: effective at rescuing cells; also recorded: equally effective; also recorded: completely rescues”. In data set [1] (Aβ42 mediated cytotoxicity and aggregation, 5 μM, 1:1 (FIG. 26a)), the “rank order for the antagonist activity” value is “ADH41>ADH46>ADM-40≥ADM-45A”. Also, the “cell viability, preformed Aβ42 oligomers” value in data set [1] (setting [4]) is 72%. In addition, in data set [1] (setting [5]), the “cell viability, preformed Aβ42 oligomers” value turned out to be 68%. Moreover, in data set [1] (setting [6]), the “cell viability, preformed Aβ42 oligomers” value was found to be 67%. In data set [2], the “Aβ42 oligomers by ELISA on delayed addition” value is “no evidence of oligomers” and the “ELISA absorbance (soluble Aβ42 oligomers, OMAB)” value is “significantly lower”. The “A11 signal intensity of the dots” value in data set [3] was “significantly weaker”.
